tested on: HIV NL4-3 wt; assay: MT4 antiviral assay, NL4-3 strain wild type; type: cell-based, HIV-1; details: Human immunodeficiency virus 1, NL43; MT4 cells; read-out: EC50 NL4-3 wt

Q: For `CC(C)C1=C2[C@H]3CC[C@@H]4[C@@]5(C)CC[C@H](OC(=O)CC(C)(C)C(=O)O)C(C)(C)[C@@H]5CC[C@@]4(C)[C@]3(C)CC[C@@]2(CCNCc2ccc(Cl)cc2)CC1` [Example 66, 4-(((3aR,5aR,5bR,7aR,9S,11aR,11bR,13aS)-3a-(2-((4-chlorobenzyl)amino)ethyl)-1-isopropyl-5a,5b,8,8,11a-pentamethyl-3,3a,4,5,5a,5b,6,7,7a,8,9,10,11,11a,11b,12,13,13a-octadecahydro-2H-cyclopenta[a]chrysen-9-yl)oxy)-2,2-dimethyl-4-oxobutanoic acid], which EC50 is on record?
A: 9.2 nM

Q: With `CC(C)C1=C2[C@H]3CC[C@@H]4[C@@]5(C)CC[C@H](OC(=O)CC(C)(C)C(=O)O)C(C)(C)[C@@H]5CC[C@@]4(C)[C@]3(C)CC[C@@]2([C@H](O)CNCC2CCCCC2)CC1` [Example 67, 4-(((3aS,5aR,5bR,7aR,9S,11aR,11bR,13aS)-3a-((S)-2-((cyclohexylmethyl)amino)-1-hydroxyethyl)-1-isopropyl-5a,5b,8,8,11a-pentamethyl-3,3a,4,5,5a,5b,6,7,7a,8,9,10,11,11a,11b,12,13,13a-octadecahydro-2H-cyclopenta[a]chrysen-9-yl)oxy)-2,2-dimethyl-4-oxobutanoic acid] as the compound, how does the EC50 read?
A: 136 nM

Q: How did the EC50 turn out when `CC(C)C1=C2[C@H]3CC[C@@H]4[C@@]5(C)CC[C@H](OC(=O)CC(C)(C)C(=O)O)C(C)(C)[C@@H]5CC[C@@]4(C)[C@]3(C)CC[C@@]2([C@H](O)CNC2CCCCC2)CC1=O` [Example 68, 4-(((3aR,5aR,5bR,7aR,9S,11aR,11bR,13aS)-3a-((S)-2-(cyclohexylamino)-1-hydroxyethyl)-1-isopropyl-5a,5b,8,8,11a-pentamethyl-2-oxo-3,3a,4,5,5a,5b,6,7,7a,8,9,10,11,11a,11b,12,13,13a-octadecahydro-2H-cyclopenta[a]chrysen-9-yl)oxy)-2,2-dimethyl-4-oxobutanoic acid] was run?
A: 10.5 nM

Q: How did the EC50 turn out when `CC(=O)O[C@H](CN(CCN(C)C)Cc1ccc(F)cc1)[C@@]12CC[C@]3(C)[C@H](CC[C@@H]4[C@@]5(C)CC[C@H](OC(=O)CC(C)(C)C(=O)O)C(C)(C)[C@@H]5CC[C@]43C)C1=C(C(C)C)C(=O)C2` [Example 70, 4-(((3aR,5aR,5bR,7aR,9S,11aR,11bR,13aS)-3a-((S)-1-acetoxy-2-((2-(dimethylamino)ethyl)(4-fluorobenzyl)amino)ethyl)-1-isopropyl-5a,5b,8,8,11a-pentamethyl-2-oxo-3,3a,4,5,5a,5b,6,7,7a,8,9,10,11,11a,11b,12,13,13a-octadecahydro-2H-cyclopenta[a]chrysen-9-yl)oxy)-2,2-dimethyl-4-oxobutanoic acid] was run?
A: 1.6 nM

Q: How did the EC50 turn out when `CC(=O)O[C@@H](CN(CCN(C)C)Cc1ccc(F)cc1)[C@@]12CC[C@]3(C)[C@H](CC[C@@H]4[C@@]5(C)CC[C@H](OC(=O)CC(C)(C)C(=O)O)C(C)(C)[C@@H]5CC[C@]43C)C1=C(C(C)C)C(=O)C2` [Example 71, 4-(((3aR,5aR,5bR,7aR,9S,11aR,11bR,13aS)-3a-((R)-1-acetoxy-2-((2-(dimethylamino)ethyl)(4-fluorobenzyl)amino)ethyl)-1-isopropyl-5a,5b,8,8,11a-pentamethyl-2-oxo-3,3a,4,5,5a,5b,6,7,7a,8,9,10,11,11a,11b,12,13,13a-octadecahydro-2H-cyclopenta[a]chrysen-9-yl)oxy)-2,2-dimethyl-4-oxobutanoic acid] was run?
A: 31.2 nM

Q: With `CC(C)C1=C2[C@H]3CC[C@@H]4[C@@]5(C)CC[C@H](OC(=O)CC(C)(C)CC(=O)O)C(C)(C)[C@@H]5CC[C@@]4(C)[C@]3(C)CC[C@@]2([C@@H](O)CNCc2ccc(Cl)cc2)CC1=O` [Example 72, 5-(((3aR,5aR,5bR,7aR,9S,11aR,11bR,13aS)-3a-((R)-2-((4-chlorobenzyl)amino)-1-hydroxyethyl)-1-isopropyl-5a,5b,8,8,11a-pentamethyl-2-oxo-3,3a,4,5,5a,5b,6,7,7a,8,9,10,11,11a,11b,12,13,13a-octadecahydro-2H-cyclopenta[a]chrysen-9-yl)oxy)-3,3-dimethyl-5-oxopentanoic acid] as the compound, how does the EC50 read?
A: 5.1 nM
